Assay results: US10206937B2, “Boronic acid derivatives and therapeutic uses thereof” (Qpex Biopharma, Inc., priority 2014, dated 2019)

Test system: strains of Enterobacteriaceae producing various carbapenemases (class A, D and B; 169 strains)
Experiment: Meropenem or tebipenem potentiation by Compounds 97 or 62 (MIC)
Assay type: cell-based
Description: The largest panel of clinical isolates expressing class A, D and B carbapenemases alone or in combination with other beta-lactamases (169 strains) was used to evaluate carbapenem potentiation activity of Compounds 97 and 62. MIC for meropenem and tebipenem of these strains were determined either alone or in the presence of Compounds 97 or 62, respectively, at a fixed concentration of 8 μg/ml in the growth media.

## C[C@@H](O)[C@H]1C(=O)N2C(C(=O)O)=C(S[C@@H]3CN[C@H](C(=O)N(C)C)C3)[C@H](C)[C@H]12 [M]
KP1182 Klebsiella pneumoniae SHV-OSBL(2b), NDM-1, OXA-232(c)
  Meropenem MIC alone (M): Z (MIC of greater than 10 μg/mL)
KP1183 Klebsiella pneumoniae SHV-OSBL(2b), TEM-OSBL(2b), CTX-M-15, NDM-1
  Meropenem MIC alone (M): Z (MIC of greater than 10 μg/mL)
KP1184 Klebsiella pneumoniae SHV-OSBL(2b), IMP-1
  Meropenem MIC alone (M): Y (MIC of 1 μg/mL to 10 μg/mL)
KP1185 Klebsiella pneumoniae SHV-OSBL(2b), TEM-OSBL(2b), IMP-4
  Meropenem MIC alone (M): Z (MIC of greater than 10 μg/mL)
KP1186 Klebsiella pneumoniae CTX-M-15, NDM-1
  Meropenem MIC alone (M): Z (MIC of greater than 10 μg/mL)
KP1187 Klebsiella pneumoniae SHV-55(2be), TEM-OSBL(2b), CTX-M-15, NDM-1
  Meropenem MIC alone (M): Z (MIC of greater than 10 μg/mL)
KP1188 Klebsiella pneumoniae SHV-OSBL(2b), CTX-M-15, NDM-1
  Meropenem MIC alone (M): Y (MIC of 1 μg/mL to 10 μg/mL)
KP1189 Klebsiella pneumoniae TEM-OSBL(2b), CTX-M-15, CTX-M-27, NDM-1
  Meropenem MIC alone (M): Z (MIC of greater than 10 μg/mL)
KP1190 Klebsiella pneumoniae KPC-4 VIM-4 TEM SHV
  Meropenem MIC alone (M): Z (MIC of greater than 10 μg/mL)
KP1191 Klebsiella pneumoniae KPC-2
  Meropenem MIC alone (M): Z (MIC of greater than 10 μg/mL)
KP1192 Klebsiella pneumoniae KPC-2 TEM SHV
  Meropenem MIC alone (M): Z (MIC of greater than 10 μg/mL)
KP1193 Klebsiella pneumoniae KPC-3 TEM SHV
  Meropenem MIC alone (M): Z (MIC of greater than 10 μg/mL)
KP1194 Klebsiella pneumoniae KPC TEM SHV
  Meropenem MIC alone (M): Z (MIC of greater than 10 μg/mL)
KP1195 Klebsiella pneumoniae KPC TEM CTX-M-15
  Meropenem MIC alone (M): Z (MIC of greater than 10 μg/mL)
KP1196 Klebsiella pneumoniae KPC TEM SHV CTX-M-15 CMY
  Meropenem MIC alone (M): Z (MIC of greater than 10 μg/mL)
KP1197 Klebsiella pneumoniae KPC-3, VIM-1 TEM SHV
  Meropenem MIC alone (M): Z (MIC of greater than 10 μg/mL)
KP1198 Klebsiella pneumoniae KPC-3, VIM-1 TEM SHV
  Meropenem MIC alone (M): Z (MIC of greater than 10 μg/mL)
KP1199 Klebsiella pneumoniae KPC-3 TEM SHV
  Meropenem MIC alone (M): Z (MIC of greater than 10 μg/mL)
KP1200 Klebsiella pneumoniae KPC-3 TEM SHV
  Meropenem MIC alone (M): Z (MIC of greater than 10 μg/mL)
KP1210 Klebsiella pneumoniae KPC SHV TEM
  Meropenem MIC alone (M): Z (MIC of greater than 10 μg/mL)
KP1211 Klebsiella pneumoniae KPC SHV TEM CTX-M-15
  Meropenem MIC alone (M): Z (MIC of greater than 10 μg/mL)
KP1212 Klebsiella pneumoniae KPC SHV TEM CTX-M-15
  Meropenem MIC alone (M): Z (MIC of greater than 10 μg/mL)
KP1213 Klebsiella pneumoniae KPC SHV TEM CTX-M-15
  Meropenem MIC alone (M): Z (MIC of greater than 10 μg/mL)
KP1214 Klebsiella pneumoniae KPC SHV TEM + 1.9 kb
  Meropenem MIC alone (M): Z (MIC of greater than 10 μg/mL)
KP1215 Klebsiella pneumoniae KPC SHV
  Meropenem MIC alone (M): Z (MIC of greater than 10 μg/mL)
KP1216 Klebsiella pneumoniae KPC SHV TEM + 1.9 kb
  Meropenem MIC alone (M): Z (MIC of greater than 10 μg/mL)
KP1217 Klebsiella pneumoniae KPC SHV TEM + 1.9 kb
  Meropenem MIC alone (M): Z (MIC of greater than 10 μg/mL)
KP1218 Klebsiella pneumoniae KPC SHV TEM + 1.9 kb
  Meropenem MIC alone (M): Z (MIC of greater than 10 μg/mL)
KP1219 Klebsiella pneumoniae KPC SHV TEM + 1.9 kb
  Meropenem MIC alone (M): Z (MIC of greater than 10 μg/mL)
KP1220 Klebsiella pneumoniae KPC SHV TEM + 1.9 kb
  Meropenem MIC alone (M): Z (MIC of greater than 10 μg/mL)
KP1221 Klebsiella pneumoniae KPC SHV TEM + 1.9 kb
  Meropenem MIC alone (M): Z (MIC of greater than 10 μg/mL)
KP1222 Klebsiella pneumoniae KPC SHV TEM IMP
  Meropenem MIC alone (M): Z (MIC of greater than 10 μg/mL)
KP1223 Klebsiella pneumoniae KPC SHV TEM
  Meropenem MIC alone (M): Z (MIC of greater than 10 μg/mL)
KP1224 Klebsiella pneumoniae KPC SHV TEM
  Meropenem MIC alone (M): Z (MIC of greater than 10 μg/mL)
KP1225 Klebsiella pneumoniae KPC SHV TEM + 1.9 kb CMY
  Meropenem MIC alone (M): Z (MIC of greater than 10 μg/mL)
KP1226 Klebsiella pneumoniae KPC SHV TEM + 1.9 kb
  Meropenem MIC alone (M): Z (MIC of greater than 10 μg/mL)
KP1227 Klebsiella pneumoniae KPC SHV TEM CTX-M-15
  Meropenem MIC alone (M): Z (MIC of greater than 10 μg/mL)
KP1228 Klebsiella pneumoniae OXA-48 TEM SHV CTX-M-15
  Meropenem MIC alone (M): Y (MIC of 1 μg/mL to 10 μg/mL)
KP1229 Klebsiella pneumoniae OXA-48 TEM SHV CTX-M-15
  Meropenem MIC alone (M): Z (MIC of greater than 10 μg/mL)
KP1230 Klebsiella pneumoniae OXA-48 TEM SHV CTX-M-15
  Meropenem MIC alone (M): Y (MIC of 1 μg/mL to 10 μg/mL)
KP1231 Klebsiella pneumoniae OXA-48 TEM SHV CTX-M-15
  Meropenem MIC alone (M): Y (MIC of 1 μg/mL to 10 μg/mL)
KP1232 Klebsiella pneumoniae OXA-48 TEM SHV CTX-M-15
  Meropenem MIC alone (M): Z (MIC of greater than 10 μg/mL)
KP1234 Klebsiella pneumoniae OXA-48 TEM SHV CTX-M-15
  Meropenem MIC alone (M): Z (MIC of greater than 10 μg/mL)
KP1236 Klebsiella pneumoniae OXA-48 TEM SHV CTX-M-15
  Meropenem MIC alone (M): Z (MIC of greater than 10 μg/mL)
PM1024 Proteus mirabilis TEM-1(2b), CMY-16, VIM-1
  Meropenem MIC alone (M): Z (MIC of greater than 10 μg/mL)
PM1025 Proteus mirabilis SHV-5(2be), TEM-OSBL(2b), VEB-2, VIM-1
  Meropenem MIC alone (M): Y (MIC of 1 μg/mL to 10 μg/mL)
PM1026 Proteus mirabilis DHA-1, IMP-26
  Meropenem MIC alone (M): Z (MIC of greater than 10 μg/mL)
PM1027 Proteus mirabilis VIM-5
  Meropenem MIC alone (M): Z (MIC of greater than 10 μg/mL)
SM1023 Serratia marcescens VIM-4
  Meropenem MIC alone (M): Z (MIC of greater than 10 μg/mL)
SM1024 Serratia marcescens TEM-1(2b), IMP-47
  Meropenem MIC alone (M): Y (MIC of 1 μg/mL to 10 μg/mL)
